Laboratory results reported in PubChem BioAssay (NCI).
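Results reflect a 48-hour exposure of cells in 96-well plates to compound at five concentrations. Here, GI50 denotes the concentration required for 50% inhibition of growth. The concentration for full growth arrest is given as TGI.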

Experiments:
Assay in all cases: inhibition of tumour cell growth, NCI panel, 48 h
[1] = system: CCRF-CEM leukemia
[2] = system: COLO 205 colon
[3] = system: DU-145 prostate
[4] = system: HCC-2998 colon
[5] = system: NCI-H460 lung
[6] = system: OVCAR-4 ovarian
[7] = system: RPMI-8226 leukemia
[8] = system: SK-OV-3 ovarian
[9] = system: SNB-19 CNS
[10] = system: SW-620 colon

SMILES | GI50 [1] [µM] | TGI [1] [µM] | GI50 [2] [µM] | TGI [2] [µM] | GI50 [3] [µM] | TGI [3] [µM] | GI50 [4] [µM] | TGI [4] [µM] | GI50 [5] [µM] | TGI [5] [µM] | GI50 [6] [µM] | TGI [6] [µM] | GI50 [7] [µM] | TGI [7] [µM] | GI50 [8] [µM] | TGI [8] [µM] | GI50 [9] [µM] | TGI [9] [µM] | GI50 [10] [µM] | TGI [10] [µM]
CCOC(=O)N[C@H]1CCc2c(Br)c(OC)c(OC)c(OC)c2-c2ccc(SC)c(=O)cc21 | < 0.01 | > 42 | < 0.01 | 0.0161 | < 0.01 | 0.125 | < 0.0155 | 1.41 | < 0.01 | 1.61 | 0.0608 | > 53.5 | < 0.01 | > 33.7 | < 0.01 | 59.4 | < 0.01 | 26.5 | < 0.01 | 16.7
O=S(=O)(NCCNc1cc(-c2cn(-c3ccccc3)nc2-c2cccc(O)c2)ccn1)c1ccc(Cl)cc1 | 3.4 | 28.6 | 1.87 | 4 | 3.6 | 21.3 | 1.99 | 4.14 | 3.34 | 11.9 | 4.37 | > 100 | 2.59 | 7.75 | 3.62 | 19.6 | 4.26 | 63.7 | 3.69 | 18.9
Cc1cc(C)n(C(=O)c2nn(-c3ccc(Cl)cc3)cc2O)n1 | 3.66 | 54.5 | 18.5 | 48.1 | 6.23 | > 100 | 15.1 | > 100 | 2.38 | 6.04 | 9.19 | > 100 | 3.34 | 17 | 7.04 | 66.1 | 3.6 | > 100 | 8.02 | > 100
C#Cc1cccc(Oc2ccc(NC(=O)CCl)cc2)c1 | 5.82 | > 82.5 | 21.2 | 73.3 | > 82.5 | > 82.5 | > 82.5 | > 82.5 | 25.3 | > 82.5 | 33.3 | > 82.5 | > 82.5 | > 82.5 | > 82.5 | > 82.5 | > 82.5 | > 82.5 | 24.8 | > 82.5
CC1SC(c2c(Cl)cccc2Cl)N(NC(=O)C(O)c2ccccc2)C1=O (stereo not given) | 74.6 | > 100 | > 100 | > 100 | > 100 | > 100 | > 100 | > 100 | > 100 | > 100 | > 100 | > 100 | 35.8 | > 100 | > 100 | > 100 | > 100 | > 100 | > 100 | > 100
COc1cc(-c2cc(/C=C3\C(=O)Nc4ccccc43)[nH]n2)cc(OC)c1OC | 2.28 | 6.96 | 2.47 | 7.02 | 4.35 | 15.1 | 13.1 | 29.4 | 4.35 | 19 | 1.91 | 8.98 | 1.77 | 4.37 | 5 | 26.7 | 4.13 | 32.5 | 3.33 | 18.9
COc1ccc(-c2nnc(N3CCN(C(=O)CN4CCN(c5ccc(Cl)cc5)CC4)CC3)nc2-c2ccc(OC)cc2)cc1 | 48 | > 100 | 16.9 | > 100 | > 100 | > 100 | 56.8 | > 100 | 14.4 | > 100 | > 100 | > 100 | 5.19 | > 100 | 36.6 | > 100 | 40.1 | > 100 | 57.9 | > 100
O=C1c2ccn(CCCCN3CCCCC3)c2C(=O)c2c1c(O)c1ccccc1c2O | 1.95 | 4.61 | 5.8 | > 52.2 | 14.1 | 30.3 | 2.95 | 9.98 | 3.88 | 16.3 | 9.48 | > 61.1 | 2.74 | 9.29 | 15.8 | 43.4 | 19.1 | > 90.5 | 3.18 | 10.6
NCCP(=O)(O)O | – | > 100 | – | > 100 | – | > 100 | – | > 100 | – | > 100 | – | > 100 | – | > 100 | – | > 100 | – | > 100 | – | > 100
